The target of experiment [1] is T1, ENL YEATS domain (His-ENL YEATS) (Homo sapiens, UniProt Q03111).
T1 construct: (aa 1−148) was cloned in pET19b; made in house; host or cells: E. coli BL21(DE3pLysS)
T1 sequence (Q03111 1-148): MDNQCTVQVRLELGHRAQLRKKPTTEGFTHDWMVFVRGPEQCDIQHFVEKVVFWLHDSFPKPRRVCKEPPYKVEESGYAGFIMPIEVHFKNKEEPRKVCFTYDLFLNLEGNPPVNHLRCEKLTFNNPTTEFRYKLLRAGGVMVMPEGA
Put plainly: AlphaScreen inhibition of ENL YEATS binding to biotinylated H3K27cr peptide. The following applies: mean ± SD, n = 3. From the text: (§1) To test the inhibition potency of the two selected peptides for the ENL YEATS domain, ENL-S1 and ENL-S2 were chemically synthesized through solid-phase peptide synthesis (SPPS) and evaluated by an AlphaScreen assay. In this assay, a biotinylated H3K27cr peptide and a 6xHis-tagged ENL YEATS domain (His-ENL YEATS) were immobilized on PerkinElmer streptavidin donor and nickel-chelating (Ni-NTA) acceptor beads, respectively. The use of a His-ENL YEATS instead of the original AviSUMO-ENL YEATS construct in the assay prevents potential false positive results derived from ligands which bind to the SUMO protein but not to the ENL YEATS domain. […] We then assessed the binding affinity of two ligands for the ENL YEATS domain using biolayer interferometry (BLI). Briefly, His-ENL was immobilized onto Ni-NTA functionalized biosensors to measure the binding kinetics of target peptides at different concentrations. […] As a small peptide directly selected from a phage display library, this level of high potency was unexpected. […] However, shorter-than-10-mer linear peptides with nanomolar binding potency have rarely been directly selected from phage display libraries. One example was S2P03, a 7-mer peptide that has a KD value as 49 ± 9 nM to bind to SIRT2.[10] This peptide contained BuK and was identified also from a BuK-containing phage display library using the active site-directed ligand selection technique. Taken together, the two examples confirmed that utilizing phage display libraries incorporated with a ncAA serving as a ligand for a protein target for active site-directed ligand selection is a successful method for identifying ultrahigh potency ligands for epigenetic proteins including both enzymes and readers. For ENL-S1 and ENL-S2, their determined kon and koff values were 6.23 ± 0.07 × 10^4 M^–1 s^–1, […] and […], 5.54 ± 0.02 × 10^–3 s^–1, respectively. Compared to ENL-S2, ENL-S1 has faster binding to the ENL YEATS domain and slower release from it, indicating its potential long-term action on the ENL YEATS inhibition. […]
Characterization of Selected Peptide Inhibitors
AlphaScreen Assay to Validate ENL Inhibitors:
His-ENL, His-AF9 (aa 1-149, EpiCypher), and biotinylated H3K27cr (aa 15-33, EpiCypher) were used to assay the synthesized inhibitors. The lyophilized peptide inhibitors were dissolved in DMF […]
and serially diluted into assay buffer (50 mM HEPES, 100 mM NaCl, 0.1% BSA, 0.05% CHAPS, pH 7.4) and incubated in the presence of 120 nM His-tagged protein at 37 °C for 30 minutes. 12.5 μL of biotinylated H3K27cr (400 nM) was aliquoted into a light gray 384-well Alphaplate (Perkin Elmer) and incubated at 37 °C. 12.5 μL of the inhibitor/protein solution was added to the H3K27cr solution, and incubated for 30 minutes at 37 °C. 25 μL of AlphaScreen histidine (nickel chelate) detection beads (Perkin Elmer) was added at 20 μg/mL each bead (streptavidin donor beads and nickel chelate acceptor beads), and the plate was incubated at 37 °C for 30 minutes. The plate was cooled to room temperature for 10 minutes, and then the beads were excited at 680 nm and the luminescence at 615 nm was read. […]
Biolayer […]
interferometry assays were performed in 96 well plates (GreinerBio-One, polypropylene, flat-bottom) using an Octet Red96 System (Sartorius). Wells were filled with 200 μL of assay buffer, blocking buffer (assay buffer + 0.1% BSA), protein solution, peptide solution, regeneration solution, and reload solution. For immobilization, His-tagged proteins were immobilized onto Ni-NTA sensors at 20 for 600 s. Sensors were then dipped into blocking buffer for 180 s, assay […] buffer for 300 s, peptide solution for 300 s, and back to assay buffer for 300 s. If multiple samples were tested, Ni-NTA sensors can be reconditioned in regeneration (10 mM glycine, pH 1.7) solution followed by reload solution (10 mM NiCl2) for 30 and 60 s, respectively. Measurements […]
Background: Alpha assays give light when donor and acceptor beads are brought close together.

Experiment [2] deals with T2, ENL YEATS domain (His-ENL) (Homo sapiens, UniProt Q03111).
T2 construct: (aa 1−148) was cloned in pET19b; made in house; host or cells: E. coli BL21(DE3pLysS)
T2 sequence (Q03111 1-148): T1 sequence (Q03111 1-148)
The experiment in a line: Biolayer interferometry (BLI) binding to ENL YEATS. The following applies: for Selectivity (ENL:AF9) from BLI KD values: ratio KD,AF9 / KD,ENL.
From the text: as §1
Biolayer Interferometry to Validate ENL Ligands:
His-ENL, His-AF9 (aa 1-149, EpiCypher), His-GAS41 (aa 15-160, EpiCypher), and YEATS2-His (aa 200-345, EpiCypher) were reconstituted in water and diluted into assay buffer (20mM Tris, 300 mM NaCl, pH 7.9) for immobilization onto Octet Ni-NTA biosensors (Sartorius). Lyophilized peptides were dissolved in DMF and diluted to designated concentrations in assay buffer. Biolayer interferometry assays were performed in 96 well plates (GreinerBio-One, polypropylene, flat-bottom) using an Octet Red96 System (Sartorius). Wells were filled with 200 μL of assay buffer, blocking buffer (assay buffer + 0.1% BSA), protein solution, peptide solution, regeneration solution, and reload solution. For immobilization, His-tagged proteins were immobilized onto Ni-NTA sensors at 20 for 600 s. Sensors were then dipped into blocking buffer for 180 s, assay […] buffer for 300 s, peptide solution for 300 s, and back to assay buffer for 300 s. If multiple samples were tested, Ni-NTA sensors can be reconditioned in regeneration (10 mM glycine, pH 1.7) solution followed by reload solution (10 mM NiCl2) for 30 and 60 s, respectively. Measurements were carried out at 30 °C. Data were analyzed within the ForteBio Data Analysis software. Data were processed by double subtracting ligand only and protein only reference wells and aligning the data to the beginning of the association. Then, global kinetic fit was performed for all sensogram curves with a 1:1 model. Steady state KD values were reported.
AlphaScreen Assay with Biotinylated-ENL-S1:
The AlphaScreen assay was carried out in 384-well plates. Manual assay setup was performed in a 40 uL reaction buffer (50 mM HEPES pH 7.4, 100 mM NaCl, 0.1% bovine serum albumin, and 0.05% CHAPS). 10 µL of varying concentrations of His-ENL YEATS (0-300 nM) and 10 µL of […]
(Biolayer interferometry detects binding as a change in optical thickness at a sensor tip.)

“And” between values parts separate entries of the source, which are not always exact repeats. Equal values may be shown once. Where a SMILES comes first, the peptide text is derived from it. The star is where a group is joined. Oxazole(5-CO) = O=C(c1cnco1)*; Crotonyl(E) = C/C=C/C(=O)*; 2Furoyl = O=C(c1ccco1)*; Butyryl = CCCC(=O)*

On to `CC(C)[C@H](NC(=O)[C@H](CC(=O)O)NC(=O)[C@@H](N)Cc1ccc(O)cc1)C(=O)N[C@@H](Cc1ccc(O)cc1)C(=O)N[C@@H](CS)C(=O)N[C@@H](Cc1ccc(O)cc1)C(=O)N[C@@H](CCCCNC(=O)c1cnco1)C(N)=O` [ENL-S1o] (H-YDVYCYK(Oxazole(5-CO))-NH2), for which the half-maximal inhibitory concentration (IC50) (as a rule, the point on the concentration scale where inhibition reaches its midpoint) in experiment [1] is 0.01 µM and 0.0103 µM. The equilibrium dissociation constant (Kd) (usually the concentration at which binding is half-saturated) in experiment [2] (BLI) was determined as 0.002 µM. Besides, the “Selectivity (ENL:AF9) from BLI KD values” in experiment [2] stood at 27.6 fold.
In experiment [1], `CC(C)[C@H](NC(=O)[C@H](CC(=O)O)NC(=O)[C@@H](N)Cc1ccc(O)cc1)C(=O)N[C@@H](Cc1ccc(O)cc1)C(=O)N[C@@H](CS)C(=O)N[C@@H](Cc1ccc(O)cc1)C(=O)N[C@@H](CCCCNC(=O)c1ccco1)C(N)=O` [ENL-S1f] (H-YDVYCYK(2Furoyl)-NH2) came in with a concentration for half-maximal inhibition (IC50) of 0.0224 ± 0.0022 µM. In experiment [2] (BLI), this molecule had an equilibrium dissociation constant (Kd) of 0.0103 µM. In experiment [2], the “Selectivity (ENL:AF9) from BLI KD values” was 14.0 fold.
In the same order, the values of `C/C=C/C(=O)NCCCC[C@H](NC(=O)[C@H](Cc1ccc(O)cc1)NC(=O)[C@H](CS)NC(=O)[C@H](Cc1ccc(O)cc1)NC(=O)[C@@H](NC(=O)[C@H](CC(=O)O)NC(=O)[C@@H](N)Cc1ccc(O)cc1)C(C)C)C(N)=O` [ENL-S1c] (H-YDVYCYK(Crotonyl(E))-NH2) are 0.02 µM, 0.0162 µM and 9.1 fold.
In turn, `CCCC(=O)NCCCC[C@H](NC(=O)[C@H](Cc1ccc(O)cc1)NC(=O)[C@H](CS)NC(=O)[C@H](Cc1ccc(O)cc1)NC(=O)[C@@H](NC(=O)[C@H](CC(=O)O)NC(=O)[C@@H](N)Cc1ccc(O)cc1)C(C)C)C(N)=O` [ENL-S1] (H-YDVYCYK(Butyryl)-NH2) had an IC50 in experiment [1] of 0.0626 ± 0.0014 µM. In experiment [2] (BLI), the dissociation constant (Kd) is 0.0363 µM and 0.036 µM; the kon (commonly a measure of how fast the partners come together) is 62300 ± 7e+06 M⁻¹ s⁻¹. For the same molecule, the “Selectivity (ENL:AF9) from BLI KD values” in experiment [2] is listed as 5.6 fold.
